Experimental data taken from ChEMBL document CHEMBL1201862, “PubChem BioAssay data set” (2004).
Active and inactive are the calls of the source.

What was measured:
[1] = target: T1, Heat shock factor protein 1 (Mus musculus, UniProt P38532); experiment: enhancement of HSF1-driven luciferase signal – cell-based, NIH3T3, luminescence, dose retest, confirmation (AID 435004); type: functional;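 further: stress induced by proteasome inhibitor MG132 added 30 min after compound; luciferase reporter driven by HSF1 response element in NIH3T3 cells; actives raise luminescence as potentiators of the MG132 stress response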
T1 sequence (P38532 whole entry): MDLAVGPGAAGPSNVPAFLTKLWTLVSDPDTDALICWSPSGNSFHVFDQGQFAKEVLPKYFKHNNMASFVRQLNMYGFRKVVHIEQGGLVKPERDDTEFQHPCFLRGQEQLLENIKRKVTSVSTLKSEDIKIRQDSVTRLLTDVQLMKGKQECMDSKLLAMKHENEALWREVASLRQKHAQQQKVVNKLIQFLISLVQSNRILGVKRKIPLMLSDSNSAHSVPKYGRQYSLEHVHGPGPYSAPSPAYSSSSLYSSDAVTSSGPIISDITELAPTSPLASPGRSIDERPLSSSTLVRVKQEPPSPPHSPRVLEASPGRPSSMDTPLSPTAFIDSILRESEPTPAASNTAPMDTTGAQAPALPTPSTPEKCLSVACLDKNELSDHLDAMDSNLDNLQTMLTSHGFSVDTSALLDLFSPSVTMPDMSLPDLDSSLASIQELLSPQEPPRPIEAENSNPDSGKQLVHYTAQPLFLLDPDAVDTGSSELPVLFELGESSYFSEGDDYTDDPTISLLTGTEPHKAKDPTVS

[2] = target: T2, Histone-lysine N-methyltransferase NSD2 (Homo sapiens, UniProt O96028); type: biochemical
T2 sequence (O96028 whole entry): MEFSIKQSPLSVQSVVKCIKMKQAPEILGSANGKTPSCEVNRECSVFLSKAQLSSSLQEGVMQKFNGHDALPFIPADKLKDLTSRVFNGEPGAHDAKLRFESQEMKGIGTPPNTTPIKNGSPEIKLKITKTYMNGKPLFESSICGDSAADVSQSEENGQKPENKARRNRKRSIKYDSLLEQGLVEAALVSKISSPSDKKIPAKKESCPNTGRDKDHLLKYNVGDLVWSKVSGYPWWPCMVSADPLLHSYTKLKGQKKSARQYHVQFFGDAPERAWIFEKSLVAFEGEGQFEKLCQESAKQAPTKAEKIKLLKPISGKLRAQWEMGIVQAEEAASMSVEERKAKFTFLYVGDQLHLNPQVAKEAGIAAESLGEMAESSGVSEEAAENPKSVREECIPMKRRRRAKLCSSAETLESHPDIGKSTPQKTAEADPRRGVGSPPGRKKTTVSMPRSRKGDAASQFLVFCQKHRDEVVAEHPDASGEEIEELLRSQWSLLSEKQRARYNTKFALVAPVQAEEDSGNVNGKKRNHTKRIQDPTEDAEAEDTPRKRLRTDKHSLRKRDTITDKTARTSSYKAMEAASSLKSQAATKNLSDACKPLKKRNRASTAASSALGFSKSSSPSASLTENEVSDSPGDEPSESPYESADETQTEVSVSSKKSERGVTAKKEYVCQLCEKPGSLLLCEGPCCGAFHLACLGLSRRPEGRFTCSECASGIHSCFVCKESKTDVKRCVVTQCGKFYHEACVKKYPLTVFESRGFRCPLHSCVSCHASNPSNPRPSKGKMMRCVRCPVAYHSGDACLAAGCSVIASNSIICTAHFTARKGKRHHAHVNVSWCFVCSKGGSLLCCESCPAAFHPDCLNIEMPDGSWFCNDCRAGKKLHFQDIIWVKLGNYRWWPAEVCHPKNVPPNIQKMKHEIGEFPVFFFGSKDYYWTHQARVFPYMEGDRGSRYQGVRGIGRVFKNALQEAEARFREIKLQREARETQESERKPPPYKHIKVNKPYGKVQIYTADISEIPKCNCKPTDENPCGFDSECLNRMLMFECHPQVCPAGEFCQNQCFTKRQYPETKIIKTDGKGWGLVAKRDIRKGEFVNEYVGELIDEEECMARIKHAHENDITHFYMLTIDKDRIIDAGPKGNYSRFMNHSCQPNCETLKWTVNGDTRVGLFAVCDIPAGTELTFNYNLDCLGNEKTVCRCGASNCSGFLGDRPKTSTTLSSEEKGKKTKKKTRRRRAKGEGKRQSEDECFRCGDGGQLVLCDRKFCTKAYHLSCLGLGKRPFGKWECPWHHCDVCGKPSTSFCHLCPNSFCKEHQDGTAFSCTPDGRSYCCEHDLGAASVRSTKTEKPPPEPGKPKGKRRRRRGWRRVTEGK

[3] = target: T3, Polyadenylate-binding protein 1 (Homo sapiens, UniProt P11940); experiment: MLLE domain peptide-binding blockers, IC50 – biochemical, fluorescence polarization, FITC-PAM2 peptide, dose response (AID 602259); type: functional; conditions: read-out: IC50_Mean
[4] = target: T3, Polyadenylate-binding protein 1; experiment: MLLE binding blockers, Cy5 peptide tracer – biochemical, fluorescence polarization, Cy5-PAM2 peptide, secondary, miRNA deadenylation inhibitor project, dose response (AID 602260); type: functional; conditions: read-out: IC50_Mean
[5] = target: T4, RNA-binding protein pos-1 (Caenorhabditis elegans, UniProt G5EF15); experiment: disruptors of C. elegans POS-1 RNA interaction – biochemical, fluorescence polarization, dose response (AID 1964);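 further: purified POS-1 fused to maltose binding protein made in E. coli; potency of compounds blocking POS-1 binding to fluorescent RNA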
T4 sequence (G5EF15 whole entry): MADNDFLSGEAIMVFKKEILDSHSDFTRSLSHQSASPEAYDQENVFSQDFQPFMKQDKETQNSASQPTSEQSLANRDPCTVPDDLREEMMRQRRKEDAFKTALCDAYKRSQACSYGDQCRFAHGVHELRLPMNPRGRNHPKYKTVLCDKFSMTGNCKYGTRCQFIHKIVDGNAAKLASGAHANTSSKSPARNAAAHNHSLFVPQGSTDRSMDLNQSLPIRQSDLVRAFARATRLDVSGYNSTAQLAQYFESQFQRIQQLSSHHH

[6] = target: T5, Zinc finger protein mex-5 (Caenorhabditis elegans, UniProt Q9XUB2); experiment: potency of MEX-5 RNA-binding blockers – biochemical, C. elegans, fluorescence polarization, dose response (AID 1960)
T5 sequence (Q9XUB2 whole entry): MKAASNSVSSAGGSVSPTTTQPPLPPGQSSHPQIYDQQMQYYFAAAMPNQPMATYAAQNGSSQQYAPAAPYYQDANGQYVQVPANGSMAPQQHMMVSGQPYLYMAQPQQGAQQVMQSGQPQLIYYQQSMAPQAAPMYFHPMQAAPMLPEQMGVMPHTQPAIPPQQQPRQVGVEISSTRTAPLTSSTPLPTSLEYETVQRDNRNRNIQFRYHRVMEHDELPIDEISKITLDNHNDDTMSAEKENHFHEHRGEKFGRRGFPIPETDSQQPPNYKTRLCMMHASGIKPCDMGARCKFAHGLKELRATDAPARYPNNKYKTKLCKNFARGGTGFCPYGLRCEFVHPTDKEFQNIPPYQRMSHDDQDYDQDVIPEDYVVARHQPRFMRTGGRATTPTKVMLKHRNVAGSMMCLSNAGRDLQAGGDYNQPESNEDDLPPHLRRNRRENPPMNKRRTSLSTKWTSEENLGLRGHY

[7] = target: T6, Ubiquitin-conjugating enzyme E2 N (Homo sapiens, UniProt P61088); type: functional;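 further: Dose-response confirmation in a TR-FRET assay detecting UBC13-driven polyubiquitin chain formation, inhibition measured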
T6 sequence (P61088 whole entry): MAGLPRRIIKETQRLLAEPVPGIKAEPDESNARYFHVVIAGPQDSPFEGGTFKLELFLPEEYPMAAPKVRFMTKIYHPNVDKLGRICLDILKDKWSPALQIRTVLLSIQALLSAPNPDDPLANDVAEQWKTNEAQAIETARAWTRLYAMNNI

[8] = blockers of bursicon-stimulated LGR2 cAMP reporter – cell-based, HEK293, CRE-luciferase reporter, cherry pick, set 2, dose response (AID 743343); type: functional;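 further: transfected cells were stimulated with diluted bursicon conditioned medium after compound addition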
[9] = target: T1, Heat shock factor protein 1; experiment: decrease of HSF1-responsive luciferase luminescence – cell-based, NIH3T3, dose retest, confirmation (AID 2382); type: functional;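 further: NIH3T3 fibroblasts with HSF1-driven luciferase reporter stressed by proteasome inhibitor MG132; luminescence from HSF1-driven luciferase expression after 8 hours of MG132 stress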
HEK293 = experiment: EBV LMP1 TES2 canonical NF-kB signalling blockers – cell-based, HEK293, luciferase, cherry-pick, dose response (AID 588343); type: functional; conditions: Homo sapiens
[10] = Luminescence Cell-Based Dose Response HTS to Identify Inhibitors of 5'UTR Stem-Loop Driven Prion Protein mRNA Translation in H4 Neuroglioblastoma Cells. [Related pubchem assays: 1827 (Project Summary), 1813 (Primary HTS)]; type: functional
[11] = alpha-synuclein stem-loop luciferase translation blockers – H4 neuroglioma cells, luminescence, confirmation (AID 1988); type: functional, cell-based
[12] = target: T7, Rac GTPase-activating protein 1 (Homo sapiens, UniProt Q9H0H5); experiment: blockers of MgcRacGAP-driven Rac1 GTP hydrolysis – biochemical, ADP Hunter fluorescence, primary and confirmatory, confirmation (AID 624330); type: functional
T7 sequence (Q9H0H5 whole entry): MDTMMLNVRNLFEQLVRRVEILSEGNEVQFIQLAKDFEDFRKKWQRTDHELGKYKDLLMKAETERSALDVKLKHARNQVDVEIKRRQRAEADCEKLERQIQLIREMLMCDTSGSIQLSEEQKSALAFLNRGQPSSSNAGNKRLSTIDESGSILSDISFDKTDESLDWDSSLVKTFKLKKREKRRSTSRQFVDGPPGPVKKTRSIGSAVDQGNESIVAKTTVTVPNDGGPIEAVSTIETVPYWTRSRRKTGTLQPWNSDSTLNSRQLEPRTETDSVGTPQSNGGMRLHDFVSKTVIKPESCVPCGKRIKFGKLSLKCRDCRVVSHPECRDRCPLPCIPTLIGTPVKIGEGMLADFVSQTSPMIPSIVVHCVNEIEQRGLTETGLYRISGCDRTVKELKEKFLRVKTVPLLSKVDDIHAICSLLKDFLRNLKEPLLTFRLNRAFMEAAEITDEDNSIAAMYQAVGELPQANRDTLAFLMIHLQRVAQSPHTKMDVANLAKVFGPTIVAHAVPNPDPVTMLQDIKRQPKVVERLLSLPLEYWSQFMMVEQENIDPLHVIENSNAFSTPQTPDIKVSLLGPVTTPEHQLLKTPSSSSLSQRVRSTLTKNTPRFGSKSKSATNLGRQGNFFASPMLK

[13] = blockers of HIV-1 envelope-mediated cell-cell fusion – cherry-pick, dose response (AID 652057); type: functional, cell-based
[14] = HIV-1 AD8 envelope cell-cell fusion blockers – cherry-pick, dose response (AID 652062); type: functional, cell-based;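 further: luciferase signal from cell-cell fusion driven by HIV-1 clade B AD8 Env; potency is for inhibitors of fusion seen as a drop in luminescence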
[15] = Dd2 malaria parasite growth inhibition potency – SYBR Green, dry powder samples, dose response (AID 1159566); type: functional, cell-based;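 further: potency for growth inhibition with lower SYBR green DNA signal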
[16] = growth inhibition of yeast DHODH-expressing 3D7 parasites – SYBR Green, dry powder samples, dose response (AID 1159570); type: functional, cell-based;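 further: parasite growth measured after 72 hours of compound exposure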
[17] = P. falciparum Dd2 growth inhibitors, dose response, SYBR Green, cherry-picked samples (AID 1159567); type: functional, cell-based
[18] = growth inhibition of PfATP4-mutant resistant parasites – NITD609-resistant line, SYBR Green, dry powder, dose response (AID 1159571); type: functional, cell-based;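 further: parasites synchronized at ring stage by sorbitol before testing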

T3 sequence (P11940 whole entry, the tested form may be a part): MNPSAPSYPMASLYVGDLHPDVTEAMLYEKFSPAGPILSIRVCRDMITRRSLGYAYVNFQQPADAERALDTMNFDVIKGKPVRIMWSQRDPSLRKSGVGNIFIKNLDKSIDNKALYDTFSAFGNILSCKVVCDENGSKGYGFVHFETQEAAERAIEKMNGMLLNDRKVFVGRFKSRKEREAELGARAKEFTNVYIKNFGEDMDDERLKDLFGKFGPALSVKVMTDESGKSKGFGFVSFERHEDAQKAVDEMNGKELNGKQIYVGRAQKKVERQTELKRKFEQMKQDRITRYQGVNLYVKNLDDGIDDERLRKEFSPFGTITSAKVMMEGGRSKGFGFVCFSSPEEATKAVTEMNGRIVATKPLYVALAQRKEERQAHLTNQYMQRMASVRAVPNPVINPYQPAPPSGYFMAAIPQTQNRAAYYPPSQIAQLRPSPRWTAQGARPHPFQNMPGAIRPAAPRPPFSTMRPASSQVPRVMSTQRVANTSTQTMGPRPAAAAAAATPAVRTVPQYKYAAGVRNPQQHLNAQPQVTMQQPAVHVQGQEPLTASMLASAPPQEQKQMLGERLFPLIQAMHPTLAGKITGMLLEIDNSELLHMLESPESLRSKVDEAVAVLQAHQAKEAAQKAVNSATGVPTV

CCN(CC)CCCn1c(=S)[nH]c2ncccc2c1=O
EC50 [1]: > 260 µM (inactive) | AC50 [2]: 9.8 µM (active)

COc1ccc(NC(=O)Nc2ccc(OCc3ccccc3)cc2)cn1
IC50 [3]: 20 µM (active) | IC50 [4]: > 66 µM (inactive) | EC50 [5]: 29.2 µM (active) | EC50 [6]: 17.9 µM (active)

CC(C)SC1=NSC2=NC(=O)/C(=C\c3c[nH]c4ccccc34)C(=N)N21
EC50 [5]: 18.6 µM (active) | EC50 [6]: > 300 µM (not active)

NCCCC[C@@H]1NC(=O)c2cc([N+](=O)[O-])cc(F)c2NCCCC[C@@H](C(N)=O)NC(=O)CNC1=O
IC50 [7]: > 20 µM (inactive)

COc1ccc(OC)c(C2Nc3c(Cl)ccc(C(=O)O)c3C3C=CCC32)c1 (stereo unspecified)
EC50 [5]: > 300 µM (not active) | EC50 [6]: 40.7 µM (active)

O=C(CC1CS(=O)(=O)CC1CC(=O)Nc1ccc2c(c1)OCCO2)Nc1ccc2c(c1)OCCO2 (stereo unspecified)
AC50 [8]: 45.8 µM (active)

CC1CCCN(c2nc3ccccc3nc2C(C#N)S(=O)(=O)c2cccs2)C1 (stereo unspecified)
IC50 [3]: > 66 µM (inactive) | IC50 [4]: > 66 µM (inactive) | EC50 [5]: 7.02 µM (inconclusive) | EC50 [6]: 11.2 µM (inconclusive)

Cc1cc(C)nc(NS(=O)(=O)c2ccc(-n3cccc3)cc2)n1
EC50 [9]: > 195 µM (not active) | AC50 [2]: > 20 µM (inactive)

Cc1nc(C)c(C(=O)Nc2ncc([N+](=O)[O-])s2)o1
AC50 (HEK293): 3.12 µM (active) | EC50 [10]: 10.2 µM (inconclusive) | EC50 [11]: 8.92 µM (inconclusive) | AC50 [2]: > 20 µM (inactive)

CC(C)Cn1cc(C(=O)NCCCN2CCC(C)CC2)c2c3ccccc3n(C)c2c1=O
IC50 [7]: > 20 µM (inactive)

CN(c1ccc(O)cc1)c1ccc([N+](=O)[O-])c2nonc12
IC50 [12]: 135 µM (active) | AC50 [2]: > 20 µM (inactive)

CC(C)COC(=O)N(C)C[C@H]1OCc2ccccc2-c2c(n(C)c3ccccc23)C(=O)N([C@H](C)CO)C[C@@H]1C
AC50 [13]: < 0.26 µM (active) | AC50 [14]: 0.304 µM (active)

Cc1ccc(/C=N/Nc2[nH]cnc3ncnc2-3)cc1
EC50 [5]: > 300 µM (not active) | EC50 [6]: > 300 µM (inconclusive)

COc1ccc2c3c([nH]c2c1)[C@H](CO)N(Cc1cccc(F)c1)CC31CCN(Cc2ccccn2)CC1
AC50 [15]: 0.906 µM (active) | AC50 [16]: 0.902 µM (active) | AC50 [17]: 1.07 µM (active) | AC50 [18]: 0.922 µM (active)

O=C(C1CCCC1)N1CC2(C1)[C@@H](c1ccccc1)[C@H](CO)N2Cc1ccc(Cl)cc1
AC50 [15]: 1.98 µM (active) | AC50 [16]: 3.13 µM (active) | AC50 [17]: 1.49 µM (active) | AC50 [18]: 3.62 µM (active)

COc1ccccc1S(=O)(=O)N(C)C[C@H]1Oc2cc(/C=C/c3ccccc3)ccc2S(=O)(=O)N([C@H](C)CO)C[C@@H]1C
AC50 [15]: 1.9 µM (active) | AC50 [16]: 2.34 µM (active) | AC50 [17]: 2.43 µM (active) | AC50 [18]: 1.78 µM (active)
